Drawing on ChEMBL document CHEMBL1135696, “Isotopic effect study of propofol deuteration on the metabolism, activity, and toxicity of the anesthetic” (J Med Chem, 2002), this text covers Km, LD50 and selectivity ratio for three compounds.

The nature of data set [1]: Kinetic parameter, Km on human hepatic microsomes. The note with it: liver microsomes.
Data set [2] is described as follows: Lethal Dose in mice (in vivo). The settings on record: mouse.
Data set [3] in a line: in vivo. The settings on record: mouse, 24 mg/kg.
Description: Therapeutic index (24 mg/kg) in mice (in vivo)

In the case of `[2H]c1cc(C(C)C)c(O)c(C(C)C)c1` [MONODEUTERATED PROPOFOL], the Km in data set [1] turned out to be 16.7 µM. For the same compound, the 50% lethal dose (LD50) in data set [2] is 39 mg/kg. Also, in data set [3], the selectivity ratio was 3.
For `CC(C)c1cccc(C(C)C)c1O` [PROPOFOL], in data set [1], the Km was found to be 12.3 µM. Also, the 50% lethal dose (LD50) in data set [2] was 32 mg/kg. In data set [3], the selectivity ratio is 2.1.
As to `[2H]c1c([2H])c(C(C)C)c(O)c(C(C)C)c1[2H]` [TRIDEUTERATED PROPOFOL], in data set [1], the Km was 16.4 µM. The median lethal dose (LD50) in data set [2] was 35 mg/kg. In addition, the selectivity ratio in data set [3] is 2.7.
